Patent US20030191342A1, “Process for the production of crystals of a benzoic acid derivative” (priority 2000, published 2003)

How the values were obtained:
[1] = background art statement, no method given; cited from earlier work
[2] = Grain size distribution by laser-type grain size analyzer (Microtrac FRA); assay type: physicochemical; settings: crystals dispersed in aqueous Soprophor FL; for Average grain size 10%: 10% point of grain size distribution; for Average grain size 50%: 50% point of grain size distribution; for Average grain size 90%: 90% point of grain size distribution
Experimental: Grain size distributions of the crystals obtained in Example 1 and Comparative Example 1 were measured. A laser-type grain size analyzer (Microtrac FRA) was used. A 1% aqueous solution of Soprophor FL (3 ml, Rhone-Poulenc) was added with water (15 ml), and an appropriate amount of the crystals obtained in Example 1 or Comparative Example 1 were dispersed in the mixture to obtain a sample dispersion.

Row | Compound | stability against heat, temperature, light and the like [1] | stability of crystalline form against physical impact [1] | Average grain size 10% [2] [μm] | Average grain size 50% [2] [μm] | Average grain size 90% [2] [μm]
1 | CC1(C)CCC(C)(C)c2cc(NC(=O)c3ccc(C(=O)O)cc3)ccc21 [crystal that melts at 233° C., 4-[(5,6,7,8-tetrahydro-5,5,8,8-tetramethyl-2-naphthalenyl)carbamoyl]benzoic acid] | high stability | high stability | – | – | –
2 | CC1(C)CCC(C)(C)c2cc(NC(=O)c3ccc(C(=O)O)cc3)ccc21 [crystal that melts at 193° C., 4-[(5,6,7,8-tetrahydro-5,5,8,8-tetramethyl-2-naphthalenyl)carbamoyl]benzoic acid, reference compound] | – | crystalline form readily occurs transition by physical impact | – | – | –
3 | CC1(C)CCC(C)(C)c2cc(NC(=O)c3ccc(C(=O)O)cc3)ccc21 [Ethanol/water, 4-[(5,6,7,8-Tetrahydro-5,5,8,8-tetramethyl-2-naphthalenyl)carbamoyl]benzoic acid] | – | – | 16.38 | 39.74 | 86.92
4 | CC1(C)CCC(C)(C)c2cc(NC(=O)c3ccc(C(=O)O)cc3)ccc21 [Methanol/water, 4-[(5,6,7,8-Tetrahydro-5,5,8,8-tetramethyl-2-naphthalenyl)carbamoyl]benzoic acid, reference compound] | – | – | 42.74 | 96.29 | 268.75
